Test results taken from the supplement of paper PMC10307832.

compound: CC(C)N(CCCNC(=O)Nc1ccc(C(C)(C)C)cc1)C[C@H]1O[C@@H](n2ccc3c(N)ncnc32)[C@H](O)[C@@H]1O + N=C(N)NC(=N)NCCc1ccccc1 [Phenformin] (partner 250 µM); assay: relative viability (nuclei count vs DMSO), 5 days (fraction); higher = more cells survive; settings: first compound 0.08 µM
How it was run: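 Lung cancer cell lines in 1536-well plates got either a single drug or a fixed anchor-drug dose together with five library-drug doses (not always all listed) in √10 steps, by pin tool, on the day after seeding. Nuclei were counted after 5 days, and relative viability is the treated-to-vehicle ratio of nuclei counts. Values are medians of duplicate plates.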

Point of comparison: LCLC-103H, relative viability 0.326. Against it:
- NCI-H2009 — higher, 0.489
- NCI-H1993 — higher, 0.464
- NCI-H520 — higher, 0.606
- PC-3 [JPC-3] — higher, 0.478
- NCI-H647 — higher, 0.469
- NCI-H2228 — higher, 0.403
- EMC-BAC-2 — higher, 0.564
- NCI-H2087 — higher, 0.38
- HCC-366 — higher, 0.625
- NCI-H1666 — higher, 0.546
- NCI-H650 — higher, 0.433
- LK-2 — higher, 0.433
- NCI-H2126 — higher, 0.523
- SK-MES-1 — higher, 0.663
- H3255 — higher, 0.375
- COR-L23 — higher, 0.467
- COR-L 105 — higher, 0.393
- LOU-NH91 — higher, 0.685
- ChaGo-K-1 — higher, 0.494
- NCI-H2170 — higher, 0.445
- NCI-H3122 — higher, 0.39
- HOP-62 — higher, 0.704
- HCC-44 — lower, 0.142
- A549 — lower, 0.183
- NCI-H522 — higher, 0.606
- LU99A — higher, 0.793
- BEN — lower, 0.254
- HARA — higher, 0.458
- SW 900 — higher, 0.719
- HCC-78 — higher, 0.804
- NCI-H441 — higher, 0.813
- LCLC-97TM1 — higher, 0.424
- NCI-H596 — higher, 0.819
- NCI-H1563 — higher, 0.67

same assay, conditions: first compound 0.253 µM

Point of comparison: LU99A, relative viability 0.679. Against it:
- NCI-H2342 — lower, 0.553
- NCI-H1623 — lower, 0.666
- PC-14 — lower, 0.544
- NCI-H1650 — lower, 0.424
- NCI-H2009 — lower, 0.496
- NCI-H520 — lower, 0.342
- PC-3 [JPC-3] — lower, 0.491
- LCLC-103H — lower, 0.342
- NCI-H647 — lower, 0.559
- NCI-H2228 — lower, 0.297
- EMC-BAC-2 — lower, 0.581
- NCI-H2087 — lower, 0.519
- HCC-366 — lower, 0.627
- NCI-H1666 — lower, 0.594
- NCI-H650 — lower, 0.456
- LK-2 — lower, 0.326
- NCI-H2126 — lower, 0.529
- SK-MES-1 — lower, 0.669
- H3255 — lower, 0.365
- COR-L23 — lower, 0.418
- COR-L 105 — lower, 0.503
- LOU-NH91 — higher, 0.712
- ChaGo-K-1 — lower, 0.47
- NCI-H2170 — lower, 0.441
- NCI-H3122 — lower, 0.384
- HOP-62 — higher, 0.69
- HCC-44 — lower, 0.155
- A549 — lower, 0.142
- NCI-H522 — lower, 0.673
- BEN — lower, 0.258
- HARA — lower, 0.413
- SW 900 — lower, 0.634
- HCC-78 — lower, 0.611
- NCI-H441 — higher, 0.923
- LCLC-97TM1 — lower, 0.487
- NCI-H1563 — lower, 0.627

same assay, conditions: first compound 0.8 µM

Point of comparison: LU99A, relative viability 0.979. Against it:
- NCI-H2342 — lower, 0.499
- NCI-H1623 — lower, 0.597
- PC-14 — lower, 0.556
- NCI-H2009 — lower, 0.475
- NCI-H520 — lower, 0.353
- PC-3 [JPC-3] — lower, 0.495
- LCLC-103H — lower, 0.304
- NCI-H2228 — lower, 0.298
- EMC-BAC-2 — lower, 0.565
- NCI-H2087 — lower, 0.445
- HCC-366 — lower, 0.754
- NCI-H1666 — lower, 0.543
- NCI-H650 — lower, 0.514
- LK-2 — lower, 0.433
- NCI-H2126 — lower, 0.52
- SK-MES-1 — lower, 0.692
- H3255 — lower, 0.371
- COR-L23 — lower, 0.434
- COR-L 105 — lower, 0.583
- LOU-NH91 — lower, 0.441
- ChaGo-K-1 — lower, 0.427
- NCI-H2170 — lower, 0.416
- NCI-H3122 — lower, 0.367
- HOP-62 — lower, 0.638
- HCC-44 — lower, 0.232
- A549 — lower, 0.164
- NCI-H522 — lower, 0.677
- BEN — lower, 0.265
- HARA — lower, 0.388
- HCC-78 — lower, 0.682
- LCLC-97TM1 — lower, 0.548
- NCI-H596 — lower, 0.626
- NCI-H1563 — lower, 0.626

same assay, conditions: first compound 2.53 µM

Point of comparison: HCC-366, relative viability 0.588. Against it:
- NCI-H2342 — lower, 0.532
- NCI-H1623 — higher, 0.607
- PC-14 — lower, 0.454
- NCI-H1650 — lower, 0.429
- NCI-H2009 — lower, 0.474
- NCI-H1993 — lower, 0.539
- NCI-H520 — higher, 0.655
- PC-3 [JPC-3] — lower, 0.451
- LCLC-103H — lower, 0.261
- NCI-H647 — lower, 0.478
- NCI-H2228 — lower, 0.274
- EMC-BAC-2 — lower, 0.543
- NCI-H2087 — lower, 0.55
- NCI-H1666 — lower, 0.586
- NCI-H650 — lower, 0.417
- LK-2 — lower, 0.562
- NCI-H2126 — lower, 0.534
- SK-MES-1 — higher, 0.69
- H3255 — lower, 0.416
- COR-L23 — lower, 0.426
- COR-L 105 — lower, 0.394
- LOU-NH91 — higher, 0.65
- ChaGo-K-1 — lower, 0.458
- NCI-H2170 — lower, 0.445
- NCI-H3122 — lower, 0.366
- HOP-62 — lower, 0.566
- HCC-44 — lower, 0.219
- A549 — lower, 0.152
- NCI-H522 — higher, 0.664
- LU99A — higher, 0.85
- BEN — lower, 0.246
- HARA — lower, 0.425
- SW 900 — lower, 0.541
- HCC-78 — higher, 0.641
- NCI-H441 — higher, 0.776
- LCLC-97TM1 — lower, 0.373
- NCI-H596 — higher, 0.781
- NCI-H1563 — higher, 0.666

same assay, conditions: first compound 8 µM

Point of comparison: NCI-H1650, relative viability 0.473. Against it:
- NCI-H2342 — higher, 0.493
- NCI-H1623 — higher, 0.565
- PC-14 — higher, 0.532
- NCI-H2009 — lower, 0.426
- NCI-H1993 — higher, 0.498
- NCI-H520 — higher, 0.618
- PC-3 [JPC-3] — higher, 0.488
- LCLC-103H — lower, 0.304
- NCI-H647 — higher, 0.568
- NCI-H2228 — lower, 0.231
- EMC-BAC-2 — lower, 0.449
- NCI-H2087 — lower, 0.351
- HCC-366 — higher, 0.53
- NCI-H1666 — higher, 0.542
- NCI-H650 — lower, 0.411
